PMC3566143, “Pantothenamides Are Potent, On-Target Inhibitors of Plasmodium falciparum Growth When Serum Pantetheinase Is Inactivated” (PLoS ONE, 2013)

Experiments:
[1] = tested on: P. falciparum PanK; assay: [14C]pantothenate phosphorylation assay with P. falciparum lysate; type: biochemical, Plasmodium falciparum; conditions: 100 µM pantothenamide, 0.2 µM [14C]pantothenate, 10 min
Experimental: To assess the effect of the pantothenamides on pantothenate phosphorylation by P. falciparum PanK, the phosphorylation of [^14C]pantothenate by P. falciparum lysates was measured in the presence and absence of a single concentration of each pantothenamide. P. falciparum lysate was prepared from trophozoite stage parasites “isolated” from their host erythrocyte by treatment with 0.05% (w/v) saponin (essentially as described by Saliba et al.), and washed (five times) in HEPES-buffered saline (125 mM NaCl, 5 mM KCl, 20 mM D-glucose, 25 mM HEPES, 1 mM MgCl2, pH 7.1). Lysates were prepared as described by van Schalkwyk et al., except that 10 mM potassium phosphate, pH 7.4 (rather than 10 mM Tris, pH 7.4), was used to lyse the cells. Aliquots of lysate were stored at −20°C. The concentration of cell lysates was determined from cell counts made using an improved Neubauer hemocytometer.
[^14C]Pantothenate phosphorylation was assayed using the Somogyi reagent essentially as described by Saliba et al., except that pantothenate phosphorylation was terminated by heat denaturation (rather than acid denaturation) of the protein in reaction aliquots. Briefly, P. falciparum lysate was added to solutions (at 37°C) of 50 mM Tris, 5 mM ATP, 5 mM MgCl2, at pH 7.4, containing [^14C]pantothenate (at a final concentration of 0.01 µCi/mL, or 0.2 µM), and a pantothenamide (at a final concentration of 100 µM) or an equivalent volume of solvent. Typically, lysate prepared from 5.4–6.5×10^7 parasites was present in each mL of reaction solution. Zero phosphorylation control reactions were prepared by adding a corresponding volume of 10 mM potassium phosphate instead of parasite lysate. Following a ten minute incubation at 37°C (a period during which pantothenate phosphorylation increased linearly with time in the absence of inhibitors) 200 µL aliquots of the [^14C]pantothenate phosphorylation reactions were transferred in duplicate to microcentrifuge tubes, and immediately incubated at 95°C for 10 min to terminate phosphorylation. Terminated reaction samples were centrifuged at 15 800×g for 10 min to pellet the denatured protein, before two aliquots of each supernatant (typically 80 µL) were transferred to new microcentrifuge tubes. To one aliquot, 500 µL Somogyi reagent was added, and to the other, 500 µL water was added. The samples were processed for determination of phosphorylated [^14C]pantothenate as described previously.

[2] = target: T1, recombinant human pantetheinase (Vanin-1) (Homo sapiens, UniProt O95497); assay: fluorescamine-based pantothenamide hydrolysis assay with recombinant pantetheinase; type: in vitro ADME; conditions: 200 µM compound, same conditions with water instead of enzyme
T1 construct: purchased Novoprotein Scientific Inc. (Short Hills, New Jersey, USA)
T1 sequence (O95497 22-513): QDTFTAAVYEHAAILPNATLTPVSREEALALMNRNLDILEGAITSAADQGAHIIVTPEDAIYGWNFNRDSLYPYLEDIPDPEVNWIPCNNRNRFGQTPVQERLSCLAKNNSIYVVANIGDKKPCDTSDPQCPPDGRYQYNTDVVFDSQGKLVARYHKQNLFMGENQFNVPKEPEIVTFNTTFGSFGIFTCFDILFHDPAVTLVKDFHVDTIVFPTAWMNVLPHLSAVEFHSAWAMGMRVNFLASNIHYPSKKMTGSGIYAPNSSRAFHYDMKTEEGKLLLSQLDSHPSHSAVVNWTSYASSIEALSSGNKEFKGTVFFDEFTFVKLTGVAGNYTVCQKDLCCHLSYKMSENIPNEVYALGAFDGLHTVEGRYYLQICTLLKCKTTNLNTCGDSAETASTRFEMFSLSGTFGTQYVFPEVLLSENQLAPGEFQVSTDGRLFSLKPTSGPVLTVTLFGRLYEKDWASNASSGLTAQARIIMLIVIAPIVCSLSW
Experimental: (§1) Hydrolysis of compound 12 to pantothenate and isobutylamine was measured using a modification of a fluorescence-based assay described previously for the measurement of N-acetyl-1-D-myo-inosityl-2-amino-2-deoxy-α-D-glucopyranoside deacetylase activity, [31]. The assay utilizes fluorescamine (4-phenylspiro-[furan-2(3H),1-phthalan]-3,3′-dione; a non-fluorescent molecule that reacts with primary amines to form a fluorescent product) for the detection of primary amines. Briefly, recombinant human pantetheinase (at a final concentration of 100 ng/mL), Albumax II (at a final concentration 0.6%, w/v), or an equivalent volume of water, was added to solutions (at 37°C) of 100 mM potassium phosphate, pH 7.5, 0.5 mM dithiothreitol, 0.01% (w/v) bovine serum albumin, 0.1% (v/v) DMSO, with or without pantothenamide (at a final concentration of 200 µM). At the appropriate time points, aliquots (30 µL) of the reaction mixtures were removed in duplicate and mixed with 10 µL 20% (v/v) trichloroacetic acid to terminate the reaction. […] The plate was then incubated at 37°C for 10 min before fluorescence was measured using a FLUOstar OPTIMA multidetection microplate reader from BMG LABTECH with excitation and emission wavelengths of 390 and 485 nm, respectively. The fluorescence detected was converted to the corresponding isobutylamine concentration using an isobutylamine standard curve. […]

[3] = tested on: Albumax II; assay: fluorescamine-based pantothenamide hydrolysis assay with Albumax II; type: in vitro ADME, bovine; conditions: 200 µM compound, Albumax II 0.6% (w/v), 37°C
Experimental: as §1

hydrolysis in the absence of pantetheinase [2]: not observed
time to completion of hydrolysis [3]: ≤ 24 h
fraction of pantothenamide hydrolyzed during 6 h incubation ([3]; 6 h): over one third
Structure (SMILES): CC(C)CNC(=O)CCNC(=O)[C@H](O)C(C)(C)CO [Compound 12]
Inhibition of pantothenate phosphorylation at 100 μM [1]: 95 ± 5%
